This passage reports EC50 results from patent US20230416262A1, “TRPML MODULATORS” (Casma Therapeutics, Inc., priority 2020, published 2023).

A word on the EC50: it is the midpoint of the concentration-response curve.

The first experiment deals with TFEB. In words: TFEB nuclear translocation assay. The class given is cell-based. The following applies: Homo sapiens; HeLa wt or HeLa TRPML1 KO cells, treated for 2 hrs; ratio of nuclear to ring-region TFEB intensity. The method in brief: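 HeLa wild-type or TRPML1 KO cells treated 2 h with compound at 37 °C, PFA-fixed, immunostained for TFEB (Alexa 488) with Hoechst nuclei. Imaged at ×20, four fields/well. Value is ratio of nuclear to perinuclear-ring TFEB intensity, with nuclei counts.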
Consider `CC(CS(=O)(=O)N1CC2(CCCC2)c2ccccc21)c1ccccc1` (stereo not drawn) [Compound I-117, 1′-(2-phenylpropanesulfonyl)-1′,2′-dihydrospiro[cyclopentane-1,3′-indole]], for which the EC50 is not below 10 µM.
In the case of `O=S(=O)(Cc1ccccc1)N1CC2(CCN(CC(F)(F)F)C2)c2ccccc21` (stereo not drawn) [Compound I-120], the EC50 fell in the range of 2.01 to 8 µM.
Still for that read-out and setting: the figure for `O=S(=O)(Cc1ccccc1)N1CC2(CCCCC2)c2ccccc21` [Compound I-121, 1′-(benzylsulfonyl)spiro[cyclohexane-1,3′-indoline]] is not above 2 µM; for `Cc1cc2n(n1)C1(CCCCC1)CN2S(=O)(=O)c1ccc(S(=O)(=O)N(C)C)cc1` [Compound I-123, N,N-dimethyl-4-({6′-methyl-1′,2′-dihydrospiro[cyclohexane-1,3′-pyrazolo[1,5-a]imidazol]-1′-yl}sulfonyl)benzene-1-sulfonamide] it is 2.01 to 8 µM; for `CN(C)S(=O)(=O)c1ccc(S(=O)(=O)N2CC3(CCCCC3)n3nccc32)cc1` [Compound I-125, 4-({1′,2′-dihydrospiro[cyclohexane-1,3′-pyrazolo[1,5-a]imidazol]-1′-yl}sulfonyl)-N,N-dimethylbenzene-1-sulfonamide] it is not below 10 µM.
As to `CN(C)S(=O)(=O)c1ccc(S(=O)(=O)N2CCC3(CCCCC3)c3ccccc32)cc1` [Compound I-128, 4-({2′,3′-dihydro-1′H-spiro[cyclohexane-1,4′-quinolin]-1′-yl}sulfonyl)-N,N-dimethylbenzene-1-sulfonamide], the EC50 is not above 2 µM.
The same measure, in the same setting: the figure for `CN(C)S(=O)(=O)c1ccc(S(=O)(=O)N2CC3(CCN(CC(F)(F)F)CC3)n3nccc32)cc1` [Compound I-144, N,N-dimethyl-4-{[1-(2,2,2-trifluoroethyl)-1′,2′-dihydrospiro[piperidine-4,3′-pyrazolo[1,5-a]imidazol]-1′-yl]sulfonyl}benzene-1-sulfonamide] is not below 10 µM; for `Cc1cc2n(n1)C1(CCCCC1)CN2S(=O)(=O)c1ccc(S(=N)(=O)N(C)C)cc1` (stereo not drawn) [Compound I-146, N,N-dimethyl-4-({6′-methyl-1′,2′-dihydrospiro[cyclohexane-1,3′-pyrazolo[1,5-a]imidazol]-1′-yl}sulfonyl)benzene-1-sulfonoimidamide] it is not below 10 µM.
The same measure, in the same setting: the figure for `Cc1cc2n(n1)C1(CCCCC1)CN2S(=O)(=O)c1ccc2c(c1)C(C)(C)CO2` [Compound I-147, 1′-[(3,3-dimethyl-2,3-dihydro-1-benzofuran-5-yl)sulfonyl]-6′-methyl-1′,2′-dihydrospiro[cyclohexane-1,3′-pyrazolo[1,5-a]imidazole]] is not below 10 µM.
With `CC(c1ccc(S(=O)(=O)N(C)C)cc1)N1CC2(CCCCC2)c2ccccc21` (stereo not drawn) [Compound I-150, 4-(1-{1′,2′-dihydrospiro[cyclohexane-1,3′-indol]-1′-yl}ethyl)-N,N-dimethylbenzene-1-sulfonamide], the 50% effective concentration (EC50) was not below 10 µM.
With `N=S(=O)(c1ccc(S(=O)(=O)N2CC3(CCCCC3)c3ccccc32)cc1)C1CC1` (stereo not drawn) [Compound I-151, 1′-((4-(cyclopropanesulfonimidoyl)phenyl)sulfonyl)spiro[cyclohexane-1,3′-indoline]], the EC50 was not below 10 µM.
Regarding `CN(C)S(=O)(=O)c1ccc(S(=O)(=O)N2CC3(CCCCC3)n3nc(C(F)(F)F)cc32)cc1` [Compound I-153, N,N-dimethyl-4-{[6′-(trifluoromethyl)-1′,2′-dihydrospiro[cyclohexane-1,3′-pyrazolo[1,5-a]imidazol]-1′-yl]sulfonyl}benzene-1-sulfonamide], the EC50 was not above 2 µM.
Regarding `CN(C)S(=O)(=O)c1ccc(S(=O)(=O)N2CC3(CCCCC3)n3nc(C4CC4)cc32)cc1` [Compound I-257, 4-({6′-cyclopropyl-1′,2′-dihydrospiro[cyclohexane-1,3′-pyrazolo[1,5-a]imidazol]-1′-yl}sulfony1)-N,N-dimethylbenzene-1-sulfonamide], the EC50 was not above 2 µM.

In the next experiment the test system is THP-1 cells. In words: Lamp1 lysosomal exocytosis assay. The class given is cell-based. The note with it: Homo sapiens, 55 min, 55 min incubation, top dose 20 μM. Here is the method: For the Lamp1 lysosomal exocytosis assay, a human monocytic suspension cell line (THP-1) was used. Cells in culture should be used between a density of […] and 1.2e6/mL on the day of the assay. For each 96-well assay plate to be used, pellet 11e6 THP-1 cells at 330×g for 5 min in a 50 mL conical tube, aspirate media and resuspend in 22 mLs of RPMI 1640/10% FBS media for a final cell concentration of 5e5/mL. Prior to addition of cells to the assay plate, perform a 7 pt dilution curve using a top dose of compound at 2 mM and use a 3-fold serial dilution, the 8th point is DMSO only. Final top dose of compound in the assay was 20 μM. 2 μL of each serial dilution was transferred to a new 96-well v-bottom assay plate. 198 μL of cells (1e5 total cells/well) was prepared as above in each well of the assay plate and incubated at 37° C./5% CO2/95% RH for 55 min. After the 55 min incubation, cells were pelleted for 5 min at 4 C at 400×g in a tabletop centrifuge. The media was separated from the cell pellets in the plate. The pellets were washed using 200 μL ice cold buffer (PBS Ca^++/Mg^++ containing 2% final BSA and 80 μM final Dynasore). Cells were pelleted again at 400×g-5 min in a 4° C. tabletop centrifuge. Buffer was separated from cells. Each well was suspended in 75 uL Lamp1-PE antibody buffer (PBS Ca^++/Mg^++ containing 2% final BSA with 80 uM final Dynasore and 1:800 final dilution of Lamp 1-PE labeled antibody). After a 45 min antibody incubation on ice, 25 μL of sytox green was added (I drop/mL buffer), and each well was mixed and incubated for an additional 15 min on ice. After the 15 min sytox green incubation, 100 μL of ice-cold buffer (PBS Ca^++/Mg^++ containing 2% final BSA and 80 uM final Dynasore) was added and cells were pelleted for 5 min at 400×g. The buffer was removed and each sample was resuspended in 100 uL of ice-cold buffer (PBS Ca^++/Mg^++ containing 2% final BSA and 80 μM final Dynasore). FACs gating strategy: FACS analyze for sytox green (A488) and Lamp1-PE (DsRed). First gate against FSC-A/SSC-A to find non-fragmented or ‘live’ THP-1 cells. Next gate against FITC-A/FSC-A to omit sytox green positive cells. Then gate for FSC-A/FSC-H to remove any doublet cells. The last gate was a histogram for PE. The statistics for ‘count’ and ‘geometric mean fluorescence intensity’ (gWFI) for PE were repoted on the last gate.
Compounds having an activity designated as “++++” provided an exocytosis readout of ≤0.50 μM; compounds having an activity designated as “+++” provided an exocytosis readout of 0.51-1.00 μM; compounds having an activity designated as “++” provided an exocytosis readout of 1.01-5.00 μM; and compounds having an activity designated as “+” provided an exocytosis readout of ≥5.01 μM
`O=C(OCc1ccccc1)N1CCC2(CC1)CN(S(=O)(=O)c1ccc(C(F)F)cc1)c1cnccc12` [Compound I-135, benzyl 1′-[4-(difluoromethyl)benzenesulfonyl]-1′,2′-dihydrospiro[piperidine-4,3′-pyrrolo[2,3-c]pyridine]-1-carboxylate]: the EC50 was not above 0.5 µM.
In turn, `O=C(N1CCCC1)N1CCC2(CC1)CN(S(=O)(=O)c1ccc(C(F)F)cc1)c1ccccc12` [Compound I-136, (1-((4-(difluoromethyl)phenyl)sulfonyl)spiro[indoline-3,4′-piperidin]-1′-yl)(pyrrolidin-1-yl)methanone] had a concentration giving a half-maximal response (EC50) not below 5.01 µM.
The molecule `O=S(=O)(c1ccc(C(F)F)cc1)N1CC2(CCC(F)(F)CC2)c2ccccc21` [Compound I-138, 1′-[4-(difluoromethyl)benzenesulfonyl]-4,4-difluoro-1′,2′-dihydrospiro[cyclohexane-1,3′-indole]] showed an EC50 not below 5.01 µM.
For `O=C(OCc1ccccn1)N1CCC2(CC1)CN(S(=O)(=O)c1ccc(C(F)F)cc1)c1ccccc12` [Compound I-141, pyridin-2-ylmethyl 1-((4-(difluoromethyl)phenyl)sulfonyl)spiro[indoline-3,4′-piperidine]-1′-carboxylate], the EC50 fell in the range of 1.01 to 5 µM.
In turn, `O=C(NC1CC1)N1CCC2(CC1)CN(S(=O)(=O)c1ccc(C(F)F)cc1)c1ccccc12` [Compound I-142, N-cyclopropyl-1-[4-(difluoromethyl)benzenesulfonyl]-1,2-dihydrospiro[indole-3,4′-piperidine]-1′-carboxamide] showed a 50% effective concentration (EC50) not below 5.01 µM.
Same read-out and setting: the figure for `O=C(NCc1ccccc1)C1CCC2(CC1)CN(S(=O)(=O)c1ccc(C(F)F)cc1)c1ccccc12` (stereo not drawn) [Compound I-143, N-benzyl-1′-((4-(difluoromethyl)phenyl)sulfonyl)spiro[cyclohexane-1,3′-indoline]-4-carboxamide] is not below 5.01 µM.
Molecule `O=S1(=O)CCC2(CC1)CN(S(=O)(=O)c1ccc(C(F)F)cc1)c1ccccc12` [Compound I-152, 1-((4-(difluoromethyl)phenyl)sulfonyl)-2′,3′,5′,6′-tetrahydrospiro[indoline-3,4′-thiopyran] 1′,1′-dioxide] came in with a concentration for a half-maximal effect (EC50) not below 5.01 µM.
In turn, `CN(C)S(=O)(=O)c1ccc(S(=O)(=O)N2CC3(CCN(Cc4ccccc4)CC3)c3c(F)cccc32)cc1` [Compound I-155, 4-((1′-benzyl-4-fluorospiro[indoline-3,4′-piperidin]-1-yl)sulfonyl)-N,N-dimethylbenzenesulfonamide] came in with an EC50 not above 0.5 µM.
On to `O=C(OCc1ccncc1)N1CCC2(CC1)CN(S(=O)(=O)c1ccc(C(F)F)cc1)c1ccccc12` [Compound I-159, pyridin-4-ylmethyl 1-((4-(difluoromethyl)phenyl)sulfonyl)spiro[indoline-3,4′-piperidine]-1′-carboxylate], for which the EC50 was not below 5.01 µM.
Molecule `CCn1cc(COC(=O)N2CCC3(CC2)CN(S(=O)(=O)c2ccc(C(F)F)cc2)c2ccccc23)cn1` [Compound I-171] had a concentration giving a half-maximal response (EC50) of 0.51 to 1 µM.
`Cn1cnc(COC(=O)N2CCC3(CC2)CN(S(=O)(=O)c2ccc(C(F)F)cc2)c2ccccc23)c1` [Compound I-172, (1-methyl-1H-imidazol-4-yl)methyl 1-((4-(difluoromethyl)phenyl)sulfonyl)spiro[indoline-3,4′-piperidine]-1′-carboxylate] had a 50% effective concentration (EC50) not below 5.01 µM.
